Measurements taken from PMC10175918 (Communications Biology, 2023).
Like-named read-outs stand apart in the source and are kept apart here.

Legend:
Experiment in all cases: TGFα-shedding assay-based GPCR screening with chimeric Gα subunit proteins
Type in all cases: cell-based
[1] = target: T1, 348 GPCRs (Homo sapiens, UniProt P18825)
T1 construct: expressed in transfected cells; host or cells: HEK293A
T1 sequence (P18825 1-462): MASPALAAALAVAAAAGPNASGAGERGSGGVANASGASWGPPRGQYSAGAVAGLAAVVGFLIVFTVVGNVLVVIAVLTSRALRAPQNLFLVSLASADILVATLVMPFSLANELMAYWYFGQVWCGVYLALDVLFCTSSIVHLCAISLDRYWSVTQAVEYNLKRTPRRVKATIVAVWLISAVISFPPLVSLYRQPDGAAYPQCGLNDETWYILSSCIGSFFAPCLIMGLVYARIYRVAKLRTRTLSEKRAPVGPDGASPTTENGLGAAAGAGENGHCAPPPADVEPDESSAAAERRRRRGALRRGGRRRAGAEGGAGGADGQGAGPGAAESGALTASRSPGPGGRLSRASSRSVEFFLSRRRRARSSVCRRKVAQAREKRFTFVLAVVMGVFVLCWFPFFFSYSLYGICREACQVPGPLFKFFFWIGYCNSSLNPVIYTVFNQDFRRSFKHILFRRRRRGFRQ

[2] = target: T2, 348 GPCRs (Homo sapiens, UniProt P08913)
T2 construct: expressed in transfected cells; host or cells: HEK293A
T2 sequence (P08913 1-465): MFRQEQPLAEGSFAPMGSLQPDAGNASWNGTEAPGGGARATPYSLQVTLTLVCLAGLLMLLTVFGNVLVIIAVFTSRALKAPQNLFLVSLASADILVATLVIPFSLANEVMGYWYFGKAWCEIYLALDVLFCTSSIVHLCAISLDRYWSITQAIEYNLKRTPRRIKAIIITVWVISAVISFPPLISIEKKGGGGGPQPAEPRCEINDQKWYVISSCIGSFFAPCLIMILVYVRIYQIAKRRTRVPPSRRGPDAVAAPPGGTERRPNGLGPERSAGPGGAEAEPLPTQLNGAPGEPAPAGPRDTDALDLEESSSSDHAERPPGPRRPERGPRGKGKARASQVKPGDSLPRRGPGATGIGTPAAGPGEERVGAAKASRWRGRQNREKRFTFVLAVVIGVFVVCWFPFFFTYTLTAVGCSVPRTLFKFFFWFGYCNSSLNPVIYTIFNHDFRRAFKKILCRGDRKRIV

[3] = target: T3, 348 GPCRs (Homo sapiens, UniProt Q99527); details: 10µM, Favipiravir 100μM
T3 construct: expressed in transfected cells; host or cells: HEK293A

[4] = target: 348 GPCRs (Homo sapiens, UniProt Q96LA9); details: 10µM, Favipiravir 100μM
[5] = target: T4, 348 GPCRs (Homo sapiens, UniProt Q9GZQ4); details: 10µM, Favipiravir 100μM
T4 construct: expressed in transfected cells; host or cells: HEK293A

[6] = target: T5, 348 GPCRs (Homo sapiens, UniProt P30518)
T5 construct: expressed in transfected cells; host or cells: HEK293A

[7] = target: T6, 348 GPCRs (Homo sapiens, UniProt Q9NZH0); details: 10µM, Favipiravir 100μM
T6 construct: expressed in transfected cells; host or cells: HEK293A

[8] = target: T7, 348 GPCRs (Homo sapiens, UniProt Q96G91)
T7 construct: expressed in transfected cells; host or cells: HEK293A
T7 sequence (Q96G91 1-374): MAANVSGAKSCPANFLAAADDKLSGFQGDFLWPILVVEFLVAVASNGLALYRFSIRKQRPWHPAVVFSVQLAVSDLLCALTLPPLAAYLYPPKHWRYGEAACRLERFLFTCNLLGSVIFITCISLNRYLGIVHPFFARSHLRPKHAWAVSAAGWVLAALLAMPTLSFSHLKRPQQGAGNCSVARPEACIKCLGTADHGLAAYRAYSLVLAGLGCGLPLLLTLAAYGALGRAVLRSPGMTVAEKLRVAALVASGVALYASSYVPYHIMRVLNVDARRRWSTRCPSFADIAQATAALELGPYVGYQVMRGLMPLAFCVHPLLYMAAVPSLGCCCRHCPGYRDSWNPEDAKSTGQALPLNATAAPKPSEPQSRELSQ

[9] = target: T8, 348 GPCRs (Homo sapiens, UniProt P41597); details: 10µM, Favipiravir 100μM
T8 construct: expressed in transfected cells; host or cells: HEK293A

[10] = target: T9, 348 GPCRs (Homo sapiens, UniProt P34969); details: 10µM, Favipiravir 100μM
T9 construct: expressed in transfected cells; host or cells: HEK293A

[11] = target: T10, 348 GPCRs (Homo sapiens, UniProt Q8NDV2); details: 10µM, Favipiravir 100μM
T10 construct: expressed in transfected cells; host or cells: HEK293A

[12] = target: T11, 348 GPCRs (Homo sapiens, UniProt P47775)
T11 construct: expressed in transfected cells; host or cells: HEK293A
T11 sequence (P47775 1-334): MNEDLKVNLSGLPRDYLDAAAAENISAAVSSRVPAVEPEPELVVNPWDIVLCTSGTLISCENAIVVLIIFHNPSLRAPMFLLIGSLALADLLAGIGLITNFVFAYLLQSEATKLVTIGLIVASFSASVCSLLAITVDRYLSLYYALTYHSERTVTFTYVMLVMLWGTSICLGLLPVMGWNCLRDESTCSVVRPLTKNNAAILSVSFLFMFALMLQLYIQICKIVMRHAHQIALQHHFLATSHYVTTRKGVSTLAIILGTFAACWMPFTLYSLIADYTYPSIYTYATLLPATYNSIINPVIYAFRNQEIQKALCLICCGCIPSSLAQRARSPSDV

[13] = GPCR α2C (adrenoceptor alpha 2C), read-out: % GPCR activation compared to TPA
[14] = GPCR α2A (adrenoceptor alpha 2A), read-out: % GPCR activation compared to TPA
[15] = GPER (G protein-coupled estrogen receptor 1), read-out: % GPCR activation compared to TPA
[16] = MRGPRX4 (MAS-related GPR, member X4), read-out: % GPCR activation compared to TPA
[17] = MRGX4 (MAS-related GPR, member X4), read-out: % GPCR activation compared to TPA
[18] = NMUR2 (neuromedin U receptor 2), read-out: % GPCR activation compared to TPA
[19] = GPCR V2 (arginine vasopressin receptor 2), read-out: % GPCR activation compared to TPA
[20] = GPRC5B (G protein-coupled receptor class C group 5 member B), read-out: % GPCR activation compared to TPA
[21] = GPCR P2Y11 (purinergic receptor P2Y, G-protein coupled, 11), read-out: % GPCR activation compared to TPA
[22] = CCR2 (C-C motif chemokine receptor 2), read-out: % GPCR activation compared to TPA
[23] = 5-HT7 (5-hydroxytryptamine receptor 7), read-out: % GPCR activation compared to TPA
[24] = GPR26 (G Protein-Coupled Receptor 26), read-out: % GPCR activation compared to TPA
[25] = GPCR GPR12 (G protein-coupled receptor 12), read-out: % GPCR activation compared to TPA
[26] = read-out: % GPCR activation compared to TPA, GPCR α2C (adrenoceptor alpha 2C)
[27] = read-out: % GPCR activation compared to TPA, GPCR α2A (adrenoceptor alpha 2A)
[28] = read-out: % GPCR activation compared to TPA, GPER (G protein-coupled estrogen receptor 1)
[29] = read-out: % GPCR activation compared to TPA, MRGPRX4 (MAS-related GPR, member X4)
[30] = read-out: % GPCR activation compared to TPA, MRGX4 (MAS-related GPR, member X4)
[31] = read-out: % GPCR activation compared to TPA, NMUR2 (neuromedin U receptor 2)
[32] = read-out: % GPCR activation compared to TPA, GPCR V2 (arginine vasopressin receptor 2)
[33] = read-out: % GPCR activation compared to TPA, GPRC5B (G protein-coupled receptor class C group 5 member B)
[34] = read-out: % GPCR activation compared to TPA, GPCR P2Y11 (purinergic receptor P2Y, G-protein coupled, 11)
[35] = read-out: % GPCR activation compared to TPA, CCR2 (C-C motif chemokine receptor 2)
[36] = read-out: % GPCR activation compared to TPA, 5-HT7 (5-hydroxytryptamine receptor 7)
[37] = read-out: % GPCR activation compared to TPA, GPR26 (G Protein-Coupled Receptor 26)
[38] = read-out: % GPCR activation compared to TPA, GPCR GPR12 (G protein-coupled receptor 12)

T8 sequence (P41597 whole entry): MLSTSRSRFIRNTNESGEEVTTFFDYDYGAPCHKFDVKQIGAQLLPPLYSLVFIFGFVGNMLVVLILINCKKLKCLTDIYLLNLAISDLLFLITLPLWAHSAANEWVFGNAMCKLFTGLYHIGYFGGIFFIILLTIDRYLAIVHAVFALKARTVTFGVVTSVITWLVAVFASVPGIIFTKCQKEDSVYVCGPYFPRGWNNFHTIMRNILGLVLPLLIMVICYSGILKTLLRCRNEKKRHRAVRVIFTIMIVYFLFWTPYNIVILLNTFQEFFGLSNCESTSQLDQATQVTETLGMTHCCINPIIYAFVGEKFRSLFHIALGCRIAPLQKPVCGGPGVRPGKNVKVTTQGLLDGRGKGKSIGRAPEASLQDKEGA
T3 sequence (Q99527 whole entry): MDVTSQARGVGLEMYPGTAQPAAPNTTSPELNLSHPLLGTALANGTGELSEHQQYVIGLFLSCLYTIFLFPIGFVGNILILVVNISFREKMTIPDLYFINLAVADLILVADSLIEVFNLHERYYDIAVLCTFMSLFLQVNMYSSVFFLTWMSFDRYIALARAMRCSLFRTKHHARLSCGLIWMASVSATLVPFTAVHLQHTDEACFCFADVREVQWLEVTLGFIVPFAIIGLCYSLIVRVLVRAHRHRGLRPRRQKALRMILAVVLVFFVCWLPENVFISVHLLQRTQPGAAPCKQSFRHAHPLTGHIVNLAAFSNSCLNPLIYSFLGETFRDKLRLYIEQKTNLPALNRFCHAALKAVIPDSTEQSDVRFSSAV
T6 sequence (Q9NZH0 29-403): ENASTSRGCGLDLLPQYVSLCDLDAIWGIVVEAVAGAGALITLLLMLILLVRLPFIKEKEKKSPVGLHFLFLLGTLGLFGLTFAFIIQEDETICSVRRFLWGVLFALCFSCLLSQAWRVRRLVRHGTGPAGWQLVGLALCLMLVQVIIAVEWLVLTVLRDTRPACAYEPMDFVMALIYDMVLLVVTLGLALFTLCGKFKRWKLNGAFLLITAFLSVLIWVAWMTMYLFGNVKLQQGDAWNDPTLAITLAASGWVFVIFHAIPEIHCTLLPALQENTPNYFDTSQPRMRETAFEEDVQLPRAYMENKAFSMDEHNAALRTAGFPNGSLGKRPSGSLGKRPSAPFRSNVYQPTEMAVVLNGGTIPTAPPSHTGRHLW
T4 sequence (Q9GZQ4 whole entry): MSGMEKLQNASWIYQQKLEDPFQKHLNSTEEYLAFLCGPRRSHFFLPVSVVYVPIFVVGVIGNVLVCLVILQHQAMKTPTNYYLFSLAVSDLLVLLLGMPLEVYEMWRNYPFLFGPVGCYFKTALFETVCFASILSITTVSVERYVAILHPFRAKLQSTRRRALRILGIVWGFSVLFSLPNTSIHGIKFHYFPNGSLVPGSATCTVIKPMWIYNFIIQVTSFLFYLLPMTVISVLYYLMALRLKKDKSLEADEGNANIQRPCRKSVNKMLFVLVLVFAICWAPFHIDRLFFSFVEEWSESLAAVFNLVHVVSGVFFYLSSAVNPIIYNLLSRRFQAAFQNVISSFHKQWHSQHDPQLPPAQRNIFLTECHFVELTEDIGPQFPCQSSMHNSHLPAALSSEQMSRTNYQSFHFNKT
T9 sequence (P34969 whole entry): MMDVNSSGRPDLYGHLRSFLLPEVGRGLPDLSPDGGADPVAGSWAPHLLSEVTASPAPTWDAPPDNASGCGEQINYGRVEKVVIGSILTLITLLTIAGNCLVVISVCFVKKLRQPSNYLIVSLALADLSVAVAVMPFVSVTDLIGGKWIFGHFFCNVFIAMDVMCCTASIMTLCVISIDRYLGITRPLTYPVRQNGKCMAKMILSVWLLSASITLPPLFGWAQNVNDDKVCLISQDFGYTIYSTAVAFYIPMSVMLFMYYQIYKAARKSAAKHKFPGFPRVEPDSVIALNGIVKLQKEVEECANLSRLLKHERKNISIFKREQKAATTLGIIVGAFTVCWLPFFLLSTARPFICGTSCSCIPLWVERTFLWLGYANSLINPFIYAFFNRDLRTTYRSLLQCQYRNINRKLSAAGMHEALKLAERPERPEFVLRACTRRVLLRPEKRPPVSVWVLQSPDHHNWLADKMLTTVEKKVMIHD
T5 sequence (P30518 whole entry): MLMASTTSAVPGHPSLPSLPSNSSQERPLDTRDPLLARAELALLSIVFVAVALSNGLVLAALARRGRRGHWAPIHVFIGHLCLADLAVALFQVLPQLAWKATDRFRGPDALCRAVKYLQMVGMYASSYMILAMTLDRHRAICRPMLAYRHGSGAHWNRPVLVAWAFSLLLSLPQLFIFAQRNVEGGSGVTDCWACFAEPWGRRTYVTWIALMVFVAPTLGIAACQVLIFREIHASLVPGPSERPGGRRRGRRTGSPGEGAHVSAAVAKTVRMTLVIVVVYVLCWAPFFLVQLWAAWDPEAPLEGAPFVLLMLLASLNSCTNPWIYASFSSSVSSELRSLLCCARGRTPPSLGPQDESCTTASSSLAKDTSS
348 GPCRs (Homo sapiens, UniProt Q96LA9), sequence (Q96LA9 whole entry): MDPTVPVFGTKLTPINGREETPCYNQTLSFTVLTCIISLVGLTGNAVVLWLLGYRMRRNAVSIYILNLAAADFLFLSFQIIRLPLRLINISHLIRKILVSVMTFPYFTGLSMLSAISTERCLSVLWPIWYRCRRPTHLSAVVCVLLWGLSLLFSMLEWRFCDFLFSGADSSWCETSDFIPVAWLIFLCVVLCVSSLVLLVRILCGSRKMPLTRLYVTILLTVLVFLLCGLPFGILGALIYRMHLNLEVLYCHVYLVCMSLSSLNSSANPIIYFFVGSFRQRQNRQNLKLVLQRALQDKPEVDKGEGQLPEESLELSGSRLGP
T10 sequence (Q8NDV2 whole entry): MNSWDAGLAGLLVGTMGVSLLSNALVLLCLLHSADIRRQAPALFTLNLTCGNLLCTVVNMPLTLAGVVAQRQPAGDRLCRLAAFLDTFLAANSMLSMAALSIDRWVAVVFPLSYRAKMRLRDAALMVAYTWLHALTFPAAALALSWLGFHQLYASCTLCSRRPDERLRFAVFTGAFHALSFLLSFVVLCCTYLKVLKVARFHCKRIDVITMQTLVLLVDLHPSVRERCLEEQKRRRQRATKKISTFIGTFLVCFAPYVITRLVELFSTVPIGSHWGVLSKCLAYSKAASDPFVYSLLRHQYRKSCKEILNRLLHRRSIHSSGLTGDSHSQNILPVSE

| activation at 10 µM [1, 13] [%] | activation at 10 µM [2, 14] [%] | activation at 10 µM [3, 15] [%] | activation at 100 µM [4, 16] [%] | activation at 100 µM [4, 17] [%] | activation at 10 µM [5, 18] [%] | activation at 10 µM [6, 19] [%] | activation at 100 µM [7, 20] [%] | activation at 10 µM [8, 21] [%] | activation at 100 µM [9, 22] [%] | activation at 100 µM [10, 23] [%] | activation at 100 µM [11, 24] [%] | activation at 10 µM [12, 25] [%] | SMILES | activation at 10 µM [1, 26] [%] | activation at 10 µM [2, 27] [%] | activation at 10 µM [3, 28] [%] | activation at 100 µM [4, 29] [%] | activation at 100 µM [4, 30] [%] | activation at 10 µM [5, 31] [%] | activation at 10 µM [6, 32] [%] | also measured |
| --- | --- | --- | --- | --- | --- | --- | --- | --- | --- | --- | --- | --- | --- | --- | --- | --- | --- | --- | --- | --- | --- |
| 2.32 | -0.949 | -3.06 | -1.84 | 0.701 | 2.73 | -0.765 | 4.38 | -16.3 | 2.78 | 1.1 | -0.116 | 4.27 | N#C[C@@]1(c2ccc3c(N)ncnn23)O[C@H](CO)[C@@H](O)[C@H]1O [GS441524] |  |  |  |  |  |  |  |  |
|  |  | -2.76 | -1.47 | -11.1 | -2.41 |  | 7.41 |  | 5.66 | 0.723 | -0.29 |  | NC(=O)c1nc(F)cnc1O [favipiravir, 6-fluoro-3-hydroxy-2-pyrazinecarboxamide] |  |  |  |  |  |  |  | activation at 100 µM ([1]; GPCR α2C (adrenoceptor alpha 2C), 100μM, read-out: % GPCR activation compared to TPA): 7%; activation at 100 µM ([2]; GPCR α2A (adrenoceptor alpha 2A), 100μM, read-out: % GPCR activation compared to TPA): 1.73%; activation at 100 µM ([6]; GPCR V2 (arginine vasopressin receptor 2), 100μM, read-out: % GPCR activation compared to TPA): 1.41%; activation at 100 µM ([8]; GPCR P2Y11 (purinergic receptor P2Y, G-protein coupled, 11), 100μM, read-out: % GPCR activation compared to TPA): -11.1%; activation at 100 µM ([12]; GPCR GPR12 (G protein-coupled receptor 12), 100μM, read-out: % GPCR activation compared to TPA): 3.7% |
| -6.27 | -0.00545 | -1.26 | -2.9 | -28.1 | -2.66 | -0.988 | -3.43 | -21.8 | 0.105 | -0.625 | -0.581 | 0.357 | CC(C)C(=O)OC[C@H]1O[C@@H](n2ccc(NO)nc2=O)[C@H](O)[C@@H]1O [molnupiravir] |  |  |  |  |  |  |  |  |
|  |  |  |  |  |  |  |  |  |  |  |  |  | CCC(CC)COC(=O)[C@H](C)N[P@](=O)(OC[C@H]1O[C@@](C#N)(c2ccc3c(N)ncnn23)[C@H](O)[C@@H]1O)Oc1ccccc1 [remdesivir] | 15.6 | 8.13 | 1.6 | -0.071 | -1.24 | 0.527 | 1.36 | activation at 100 µM [7, 33]: 6.88%; activation at 10 µM [8, 34]: -12.5%; activation at 100 µM [9, 35]: 5.23%; activation at 100 µM [10, 36]: 1.8%; activation at 100 µM [11, 37]: 0.188%; activation at 10 µM [12, 38]: 5.35% |
|  |  |  |  |  |  |  |  |  |  |  |  |  | CC(C)OC(=O)[C@H](C)N[P@](=O)(OC[C@H]1O[C@@H](n2ccc(=O)[nH]c2=O)[C@](C)(F)[C@@H]1O)Oc1ccccc1 [sofosbuvir] | -4.42 | -2.48 | -0.815 | -0.776 | -14.4 | -4.3 | -0.417 | activation at 100 µM [7, 33]: -12.5%; activation at 10 µM [8, 34]: -20.5%; activation at 100 µM [9, 35]: -0.876%; activation at 100 µM [10, 36]: -1.41%; activation at 100 µM [11, 37]: 0.171%; activation at 10 µM [12, 38]: -0.471% |
